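Following 48 hours of exposure in 96-well plates, responses at five concentrations were used to interpolate endpoints linearly. GI50 is the concentration that inhibits growth by half.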 Active and inactive are the calls of the source. No stated cut-off is given here; in the data, active = GI50 up to about 1.1 µM and inactive = higher.
How the values were obtained:
Test in all cases: inhibition of tumour cell growth, NCI panel, 48 h
RXF 393 = tested on: RXF 393
SK-MEL-5 = tested on: SK-MEL-5
SR = tested on: SR
COLO 205 = tested on: COLO 205
K562 = tested on: K562
SK-MEL-2 = tested on: SK-MEL-2
NCI-H23 = tested on: NCI-H23
OVCAR-5 = tested on: OVCAR-5
SF-295 = tested on: SF-295
SF-268 = tested on: SF-268
UO-31 = tested on: UO-31
TK-10 = tested on: TK-10
HT-29 = tested on: HT-29
SNB-19 = tested on: SNB-19
SK-OV-3 = tested on: SK-OV-3
786-0 = tested on: 786-0
CCRF-CEM = tested on: CCRF-CEM
SF-539 = tested on: SF-539

Measured: GI50

O=C(/C=N/O)Nc1ccc(Cl)c(I)c1
inactive: RXF 393 16.8 µM | SK-MEL-5 18.4 µM | SR 15.7 µM | COLO 205 13.6 µM | K562 24 µM | SK-MEL-2 15.7 µM | NCI-H23 17.8 µM | OVCAR-5 21.6 µM | SF-295 29.5 µM | SF-268 19.2 µM | UO-31 12.1 µM | TK-10 33.6 µM | HT-29 33.3 µM | SNB-19 23.9 µM | SK-OV-3 17.8 µM | 786-0 29.3 µM | CCRF-CEM 26.7 µM

COC(=O)C1C2C=CC(C2)N1[C@@H](C)c1ccccc1 (some centres not stated)
inactive: SK-MEL-5 > 100 µM | SR > 100 µM | COLO 205 > 100 µM | K562 > 100 µM | SK-MEL-2 > 100 µM | NCI-H23 > 100 µM | OVCAR-5 > 100 µM | SF-295 > 100 µM | SF-268 > 100 µM | UO-31 > 100 µM | TK-10 > 100 µM | HT-29 > 100 µM | SNB-19 > 100 µM | SK-OV-3 > 100 µM | SF-539 > 100 µM | 786-0 > 100 µM | CCRF-CEM > 100 µM

O=C1OC(c2ccccc2)=N/C1=C/NC(Cc1ccc(O)cc1)C(=O)O (configuration not stated)
inactive: RXF 393 > 100 µM | SK-MEL-5 > 100 µM | COLO 205 > 100 µM | K562 > 100 µM | SK-MEL-2 > 100 µM | NCI-H23 > 100 µM | OVCAR-5 > 100 µM | SF-295 > 100 µM | SF-268 > 100 µM | UO-31 > 100 µM | TK-10 > 100 µM | HT-29 > 100 µM | SNB-19 > 100 µM | SK-OV-3 > 100 µM | SF-539 > 100 µM | 786-0 > 100 µM | CCRF-CEM > 100 µM

Nc1cn(C2OC(CC(c3ccccc3)(c3ccccc3)c3ccccc3)C(O)C2O)c(=O)[nH]c1=O (configuration not stated)
inactive: RXF 393 6.64 µM | SK-MEL-5 20.5 µM | SR 18.7 µM | COLO 205 16.6 µM | K562 23.4 µM | SK-MEL-2 28 µM | NCI-H23 23.5 µM | OVCAR-5 21.2 µM | SF-295 30.1 µM | SF-268 34.7 µM | UO-31 31.6 µM | TK-10 26.4 µM | HT-29 23.2 µM | SNB-19 26.8 µM | SK-OV-3 34.7 µM | 786-0 21.4 µM | CCRF-CEM 23.3 µM

Cc1ccc(NC(=O)CCc2nnc(S)[nH]2)cc1
inactive: SK-MEL-5 > 100 µM | SR > 100 µM | COLO 205 > 100 µM | K562 > 100 µM | SK-MEL-2 > 100 µM | NCI-H23 > 100 µM | OVCAR-5 > 100 µM | SF-295 > 100 µM | SF-268 > 100 µM | UO-31 > 100 µM | TK-10 > 100 µM | HT-29 > 100 µM | SNB-19 > 100 µM | SK-OV-3 > 100 µM | SF-539 > 100 µM | 786-0 > 100 µM | CCRF-CEM > 100 µM

COc1cc(OC)c2ssc3c(OC)cc(OC)c4ssc1c2-c43
inactive: RXF 393 > 100 µM | SK-MEL-5 > 100 µM | COLO 205 > 100 µM | K562 > 100 µM | SK-MEL-2 > 100 µM | NCI-H23 > 100 µM | OVCAR-5 > 100 µM | SF-295 > 100 µM | SF-268 > 100 µM | TK-10 > 100 µM | HT-29 > 100 µM | SNB-19 > 100 µM | SK-OV-3 > 100 µM | SF-539 > 100 µM | 786-0 > 100 µM | CCRF-CEM > 100 µM

CC(=O)N/C(=C\c1ccc(/C=C(\NC(C)=O)c2nc3cc(Cl)ccc3[nH]2)cc1)c1nc2ccccc2[nH]1
inactive: SK-MEL-5 > 100 µM | SR > 100 µM | COLO 205 > 100 µM | K562 > 100 µM | SK-MEL-2 > 100 µM | NCI-H23 > 100 µM | OVCAR-5 > 100 µM | SF-268 > 100 µM | TK-10 > 100 µM | HT-29 > 100 µM | SNB-19 > 100 µM | SK-OV-3 > 100 µM | SF-539 > 100 µM | 786-0 > 100 µM | CCRF-CEM > 100 µM

N#C/C(=C1\SC(/N=N/c2ccccc2)C(=O)N1c1ccccc1)c1nc2ccccc2[nH]1 (configuration not stated)
inactive: RXF 393 28.6 µM | SK-MEL-5 57 µM | COLO 205 > 100 µM | K562 36.3 µM | SK-MEL-2 68.5 µM | NCI-H23 > 100 µM | OVCAR-5 > 100 µM | SF-295 61.2 µM | SF-268 > 100 µM | UO-31 24.2 µM | TK-10 48.9 µM | HT-29 > 100 µM | SNB-19 > 100 µM | SK-OV-3 66.5 µM | SF-539 29.7 µM | 786-0 7.35 µM | CCRF-CEM 42.8 µM

Fc1ccc(F)c(C2SCc3nc4ccccc4n32)c1 (configuration not stated)
inactive: RXF 393 67.6 µM | SK-MEL-5 20.3 µM | SR 43.9 µM | COLO 205 > 100 µM | K562 37.1 µM | NCI-H23 46.2 µM | OVCAR-5 > 100 µM | SF-295 29.5 µM | SF-268 66.4 µM | UO-31 41.3 µM | TK-10 34.3 µM | HT-29 86.3 µM | SNB-19 > 100 µM | SK-OV-3 > 100 µM | SF-539 > 100 µM | 786-0 > 100 µM | CCRF-CEM 47.6 µM

CCCCCCCCCCCCCCCCNc1cccc2ccccc12
inactive: RXF 393 > 100 µM | SR > 100 µM | COLO 205 > 100 µM | K562 > 100 µM | NCI-H23 > 100 µM | SF-295 > 100 µM | SF-268 > 100 µM | UO-31 > 100 µM | TK-10 > 100 µM | SNB-19 > 100 µM | SK-OV-3 > 100 µM | SF-539 > 100 µM | 786-0 > 100 µM | CCRF-CEM > 100 µM

C/C(CCn1[nH]c(=O)ccc1=O)=N\OCCCc1ccccc1
inactive: RXF 393 > 100 µM | SK-MEL-5 > 100 µM | SR > 100 µM | K562 > 100 µM | SK-MEL-2 > 100 µM | NCI-H23 > 100 µM | OVCAR-5 > 100 µM | SF-295 > 100 µM | SF-268 > 100 µM | UO-31 > 100 µM | TK-10 > 100 µM | HT-29 > 100 µM | SNB-19 > 100 µM | SF-539 > 100 µM | 786-0 > 100 µM | CCRF-CEM > 100 µM

CCO/N=C(/N)c1ncn(Cc2ccccc2)c1NCC(OCC)OCC
inactive: RXF 393 29.2 µM | SK-MEL-5 > 100 µM | COLO 205 > 100 µM | K562 > 100 µM | SK-MEL-2 > 100 µM | OVCAR-5 > 100 µM | SF-295 > 100 µM | SF-268 > 100 µM | UO-31 > 100 µM | TK-10 > 100 µM | HT-29 > 100 µM | SNB-19 > 100 µM | SK-OV-3 > 100 µM | SF-539 > 100 µM | 786-0 > 100 µM | CCRF-CEM > 100 µM

C1=C(c2ccccc2)C(OC2Oc3ccccc3C=C2c2ccccc2)Oc2ccccc21 (configuration not stated)
inactive: RXF 393 > 100 µM | SK-MEL-5 > 100 µM | SR 33.6 µM | COLO 205 > 100 µM | K562 > 100 µM | SK-MEL-2 > 100 µM | NCI-H23 > 100 µM | OVCAR-5 > 100 µM | SF-295 > 100 µM | SF-268 > 100 µM | UO-31 > 100 µM | TK-10 > 100 µM | HT-29 > 100 µM | SNB-19 > 100 µM | SK-OV-3 > 100 µM | 786-0 > 100 µM | CCRF-CEM > 100 µM

Cc1cc(C)nc(NS(=O)(=O)c2ccc(NC(=O)c3cccc4c(Nc5ccc(S(=O)(=O)Nc6nc(C)cc(C)n6)cc5)c5ccccc5nc34)cc2)n1
inactive: RXF 393 14.7 µM | SK-MEL-5 16.6 µM | COLO 205 22.9 µM | K562 19.4 µM | SK-MEL-2 34 µM | NCI-H23 20.3 µM | OVCAR-5 > 10 µM | SF-295 21.4 µM | SF-268 12.9 µM | UO-31 17.7 µM | TK-10 27.2 µM | HT-29 20 µM | SNB-19 10.2 µM | SK-OV-3 26 µM | SF-539 15.4 µM | 786-0 19.6 µM | CCRF-CEM 22.2 µM

CC1OC(=O)N2CCC=CC12 (configuration not stated)
inactive: RXF 393 > 100 µM | SK-MEL-5 > 100 µM | COLO 205 > 100 µM | K562 > 100 µM | SK-MEL-2 > 100 µM | NCI-H23 > 100 µM | OVCAR-5 > 100 µM | SF-295 > 100 µM | SF-268 > 100 µM | UO-31 > 100 µM | TK-10 > 100 µM | HT-29 > 100 µM | SNB-19 > 100 µM | SK-OV-3 > 100 µM | SF-539 > 100 µM | 786-0 > 100 µM | CCRF-CEM > 100 µM

CS/C(=N\c1ccc([N+](=O)[O-])cc1C#N)NC(=O)c1ccccc1
inactive: RXF 393 40.4 µM | SK-MEL-5 > 100 µM | SR > 100 µM | COLO 205 > 100 µM | K562 > 100 µM | NCI-H23 > 100 µM | OVCAR-5 > 100 µM | SF-295 > 100 µM | SF-268 > 100 µM | TK-10 > 100 µM | HT-29 > 100 µM | SNB-19 > 100 µM | SF-539 > 100 µM | 786-0 > 100 µM | CCRF-CEM > 100 µM
